Measured values taken from patent publication US20240316038A1, “APOL1 INHIBITORS AND METHODS OF USE” (Maze Therapeutics, Inc., priority 2021, published 2024).

Experiments:
APOL1 G2 [1] = target: T1, APOL1 G2 (Homo sapiens, UniProt O14791, DEL388-389); assay: Rescue of HEK293 cell death caused by overexpression of APOL1 (CellTiter-Glo luminescence), HEK293/T-REx APOL1 G2/clone #2; assay type: cell-based; details: reversal of cell death caused by overexpression of APOL1; geometric mean of at least 2 assay runs, † = single assay run (technical duplicate)
T1 construct: expressed in transfected cells; host or cells: HEK293 T-REx clonal lines: HEK T-REx/GCaMP6f/APOL1 G2 K6.3 in A1, HEK293/T-REx APOL1 G2/clone #2 in A2
T1 sequence (O14791 with tags, fused parts or gaps DEL388-389): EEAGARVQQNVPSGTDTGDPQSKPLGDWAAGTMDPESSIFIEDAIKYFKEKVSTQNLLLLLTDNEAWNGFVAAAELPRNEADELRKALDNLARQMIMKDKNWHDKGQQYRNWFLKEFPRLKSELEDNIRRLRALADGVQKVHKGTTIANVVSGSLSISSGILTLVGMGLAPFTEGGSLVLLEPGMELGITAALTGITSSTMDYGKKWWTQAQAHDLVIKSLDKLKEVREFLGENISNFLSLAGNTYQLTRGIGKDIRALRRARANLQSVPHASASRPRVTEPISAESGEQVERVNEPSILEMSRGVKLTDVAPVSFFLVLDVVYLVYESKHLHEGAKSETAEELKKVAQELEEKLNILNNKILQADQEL
Method in brief: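 Rescue EC50s come from four-parameter logistic fits, geometric mean of at least 2 runs on separate days, each in duplicate. Readout: CellTiter-Glo luminescence after 17 h at 37 °C of 5,000 HEK293/T-REx APOL1 G2 clone #2 cells/well, with 6 ng/mL doxycycline to induce APOL1 and 3-fold serial compound dilutions in 0.5% DMSO.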

APOL1 G2 [2] = target: T1, APOL1 G2; assay: APOL1 calcium transport inhibition assay (GCaMP6f calcium influx, FLIPR) in HEK T-REx/GCaMP6f/APOL1 G2 K6.3 cells; assay type: cell-based; details: inhibition of APOL1-mediated calcium influx; geometric mean of at least 2 assay runs, † = single assay run (technical duplicate)
Method in brief: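 HEK293 cells stably expressing GCaMP6f, APOL1 G2 induced 6 h with doxycycline (20 ng/mL added), then washed into Ca2+-free Tyrode's buffer pH 7.4. Compounds (8-point dose response) preincubated 10 min at room temperature, then Ca2+ injected to 5 mM final and influx read on FLIPR. AC50 reported as geometric mean of runs.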

COC1CCN(CCc2cccc(Cl)c2)CC1COc1ccc(S(C)(=O)=O)cc1 (single isomer, unassigned) [Compound 34, rac-cis or trans-1-(3-chlorophenethyl)-4-methoxy-3-((4-(methylsulfonyl)phenoxy)methyl)piperidine]
EC50 (APOL1 G2 [1]): 0.779 µM
AC50 (APOL1 G2 [2]): 0.991 µM

C[C@@H]1C[C@H](COc2ccc(S(=O)(=O)C3CNC3)cc2)CN1CCc1cccc(C#N)c1 [Compound 156, 3-{2-[(2R,4S)-4-{[4-(azetidine-3-sulfonyl)phenoxy]methyl}-2-methylpyrrolidin-1-yl]ethyl}benzonitrile]
EC50 (APOL1 G2 [1]): 0.178 µM
AC50 (APOL1 G2 [2]): 0.311 µM
